For one test, the target named is PRMT5:MEP50 (Homo sapiens, UniProt O14744). In words: PRMT5 biochemical assay (HTRF, biotinylated H4R3 substrate), protocols 1 and 2. The note with it: 1 μM SAM, 50 nM biotinylated H4R3, protocol 1 or 2 not given, read-out: IC50 (activity range), inhibition of PRMT5. As for the experimental part: (§1) Inhibitory effect of compounds on PRMT5 was assessed using HTRF detection technology in biochemical assay. Biotinylated H4R3 (residues 1-21) was used as a substrate. Compounds were pre-incubated with 15-25 ng PRMT5:MEP50 per well of a 384-well plate for 30 min at room temperature in the assay buffer containing 20 mM Bicine, pH 7.6, 25 mM NaCl, 2 mM DTT, 0.01% Chicken albumin and 0.01% Tween-20. Reaction was initiated by adding 1 μM of SAM and 50 nM biotinylated H4R3. Total assay volume was 15 μL. Reaction was continued for 120 min at room temperature. Then detection solution containing Streptavidin-Eu cryptate, anti-rabbit IgG-XL-665, Histone H4R3 Dimethyl Symmetric (H4R3me2s) Polyclonal Antibody, all prepared in HTRF detection buffer was added and further incubated for 30 min at room temperature. HTRF signal was recorded in PHERAStar microplate reader. Ratio of signal obtained at 665 nm and 620 nm was used to compute the percent inhibition of compound as follows % Inhibition=100−((Test Ratio−Negative control Ratio)/(Positive control Ratio−Negative control Ratio)*100) where Positive control=PRMT5+SAM+H4R3 Negative control=PRMT5+H4R3 Biochemical Assay Protocol 2
Chain of PRMT5:MEP50 (O14744 whole entry, the tested form may be a part): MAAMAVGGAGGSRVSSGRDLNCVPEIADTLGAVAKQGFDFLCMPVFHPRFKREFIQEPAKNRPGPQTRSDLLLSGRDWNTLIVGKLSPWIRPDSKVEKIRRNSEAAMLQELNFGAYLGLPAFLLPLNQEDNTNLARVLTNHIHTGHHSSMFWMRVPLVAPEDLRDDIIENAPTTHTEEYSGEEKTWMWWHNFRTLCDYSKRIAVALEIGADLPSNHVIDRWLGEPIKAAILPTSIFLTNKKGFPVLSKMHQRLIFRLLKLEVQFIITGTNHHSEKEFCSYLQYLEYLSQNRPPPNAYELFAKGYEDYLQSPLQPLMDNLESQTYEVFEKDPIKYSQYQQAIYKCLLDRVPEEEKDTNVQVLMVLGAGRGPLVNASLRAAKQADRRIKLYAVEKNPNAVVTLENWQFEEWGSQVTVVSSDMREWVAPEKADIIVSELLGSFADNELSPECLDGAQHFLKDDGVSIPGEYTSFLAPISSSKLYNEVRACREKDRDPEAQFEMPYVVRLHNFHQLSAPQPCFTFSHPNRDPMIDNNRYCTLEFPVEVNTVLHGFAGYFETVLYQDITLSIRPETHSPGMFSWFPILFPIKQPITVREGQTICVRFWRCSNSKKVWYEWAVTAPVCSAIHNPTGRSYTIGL
Chain of PRMT5:MEP50 (Q9BQA1 whole entry partner, the tested form may be a part): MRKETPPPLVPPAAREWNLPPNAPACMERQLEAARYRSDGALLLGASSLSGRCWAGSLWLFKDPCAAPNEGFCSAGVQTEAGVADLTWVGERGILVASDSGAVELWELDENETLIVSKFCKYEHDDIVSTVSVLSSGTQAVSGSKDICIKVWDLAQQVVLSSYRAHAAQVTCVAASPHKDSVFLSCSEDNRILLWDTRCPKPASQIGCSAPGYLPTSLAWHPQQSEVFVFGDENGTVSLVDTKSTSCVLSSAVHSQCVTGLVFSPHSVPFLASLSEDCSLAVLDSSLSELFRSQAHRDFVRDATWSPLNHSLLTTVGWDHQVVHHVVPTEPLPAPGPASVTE
as §1, with “2.5” for “15-25”, “4 h” for “120 min”, “control=PRMT5+H4R3” for “control=PRMT5+H4R3 Biochemical Assay Protocol 2”

In another test the test system is SDMA. Kind of test: SDMA inhibition assay in Z-138 cells (ELISA with anti-SDMA antibody). In kind it is cell-based. The conditions noted are these: Homo sapiens, Z-138, 48 h, 48 h treatment, read-out: IC50 (activity range), SDMA inhibition. As for the experimental part:
Z-138 cells (ATCC, CRL-3001™) were seeded at a density of 1 million cells/well in transparent, flat bottomed tissue culture grade 48-well plates. Cells were treated with various concentration of test compounds for a period of 48 h. Cell lysate was prepared using 1× CST Lysis buffer (Cell Signaling Technology, USA) and 500 ng/well/50 μL of lysate in pH 9.6 carbonate buffer was coated on 96-well Maxisorb plate and incubated overnight at 4° C. The plate was washed twice in 1×PBS containing 0.05% Tween 20 and blocked in 1% BSA for 1 h at ambient temperature. Further, the plate was incubated first with primary antibody (anti-SDMA antibody; CST #13222s) at ambient temperature for 2 h and then with HRP-conjugated secondary antibody at ambient temperature for 1 h with 2 intermittent washing steps in between.
For luminiscence based detection, HRP substrates (substrate A+substrate B in a 1:1 proportion) were added followed by luminiscence reading after 30 min in Synergy™ 2 reader (Biotek, USA).
For absorbance based detection, TMB substrate was added followed by addition of STOP solution (2N H2SO4) post colour development and absorbance (excitation 450 nm and emission 540 nm) was measured in Synergy™ 2 reader (Biotek, USA).
% inhibition of SDMA was calculated relative to the vehicle control samples containing media with 0.1% DMSO alone as per the formula below. (Avg. of Untreated Control−Avg. of Test)×100 Avg. Of Untreated Control
The IC50 values of individual compounds were calculated with Non Linear Regression Analysis using Graph Pad Prism (Graph Pad software, Inc, USA).
(In general: ELISA stands for enzyme-linked immunosorbent assay.)

For the next test, the system named is Z-138 cells. In words: Anti-cancer assay (Z-138), cell viability by CellTiterGlo. In kind it is cell-based. The note with it: Homo sapiens, 96 h treatment, read-out: IC50 (activity range), inhibition of cell viability. As for the experimental part:
Z-138 cells were seeded at a density of 2000-3000 cells per well in culture media (IMDM+10% FBS). PANC-1 (ATCC, CRL-1469™) and MIA PaCa-2 (ATCC, CRL-1420™) cells were seeded at a density of 200-300 cells per well in culture media (DMEM+10% FBS). Cells were seeded in opaque, flat bottomed tissue culture grade 96-well plates and Z-138 cells (suspension) were seeded and treated on the same day with various concentrations of test compounds. PANC-1 and MIA PaCa-2 cells, being adherent, were kept for overnight settlement at standard cell culture conditions (37° C., 5% CO2). On the following day, cells were treated with various concentrations of test compounds. Cells were treated with test compounds for a period of 96 h, 7 days and 10 days, for Z-138 cells, PANC-1 cells and MIA PaCa-2 cells, respectively. Cell viability was assessed using CellTiterGlo™ (Promega, USA) as per manufacturer's instructions. Relative Light Units (RLU) were read in Synergy™ 2 reader (Biotek, USA). The assay measures cellular ATP as an indicator of cell viability. RLU is proportional to the number of viable cells in the respective well. % inhibition of cell viability was calculated relative to the vehicle control samples containing media with 0.1% DMSO alone as per the formula below. (Avg. of Untreated Control−Avg. of Test)×100 Avg. Of Untreated Control
The IC50 values of individual compounds were calculated with Non Linear Regression Analysis using Graph Pad Prism (Graph Pad software, Inc, USA). • Anti-Cancer Assay (Z-138)
A general note: Cellular ATP, detected with luciferase, serves as a proxy for viable cell number.

Molecules are shown by their SMILES.

A word on the IC50: it is the concentration needed to halve the response being measured. On to `Nc1nc2cc(CC[C@@]34C[C@@H]3[C@@H](n3ccc5c(N)ncnc53)[C@H](O)[C@@H]4O)cnc2cc1Cl` [Compound 24, (1R,2R,3S,4R,5S)-1-(2-(6-Amino-7-chloro-1,5-naphthyridin-3-yl)ethyl)-4-(4-amino-7H-pyrrolo[2,3-d]pyrimidin-7-yl)bicyclo[3.1.0]hexane-2,3-diol], for which the IC50 on PRMT5:MEP50 was 0.25 to 0.95 nM; in the test on SDMA, 1.1 to 50 nM; in the test with Z-138 cells, over 1 nM.

Take `Cc1cn([C@@H]2C=C(CCc3cc(C(F)F)c(F)c4c3CNCC4)[C@@H](O)[C@H]2O)c2ncnc(N)c12` [Compound 25, (1S,2R,5R)-5-(4-amino-5-methyl-7H-pyrrolo[2,3-d]pyrimidin-7-yl)-3-(2-(6-(difluoromethyl)-5-fluoro-1,2,3,4-tetrahydroisoquinolin-8-yl)ethyl)cyclopent-3-ene-1,2-diol]: the results for the IC50 at PRMT5:MEP50, in the test on SDMA and in the test on Z-138 cells were 0.25 to 0.95 nM, 1.1 to 50 nM and over 1 nM, respectively.

For the compound `Nc1nc2cc(CCC3=C[C@@H](n4ccc5c4ncn4ccnc54)[C@H](O)[C@@H]3O)ccc2cc1Br` [Compound 26, (1S,2R,5R)-3-(2-(2-Amino-3-bromoquinolin-7-yl)ethyl)-5-(7H-imidazo[1,2-c]pyrrolo[3,2-e]pyrimidin-7-yl)cyclopent-3-ene-1,2-diol], the IC50 at PRMT5:MEP50 is over 0.95 nM; in the test with SDMA, 1.1 to 50 nM; in the test on Z-138 cells, over 1 nM.
